Measurements taken from article PMC7497679, “Structure-based design, synthesis, and evaluation of the biological activity of novel phosphoroorganic small molecule IAP antagonists” (Investigational New Drugs, 2020).
Where two headings read alike, the source gives them in different places. Peptide text beside a SMILES is read from it.

Target: T1, XIAP BIR3 domain (Homo sapiens, UniProt P98170)
T1 construct: fluorescent probe 4 and the XIAP BIR3 domain (Sino Biological, Beijing, China) were used for all measurements; purchased Sino Biological, Beijing, China
T1 sequence (P98170 252-356 limits assumed): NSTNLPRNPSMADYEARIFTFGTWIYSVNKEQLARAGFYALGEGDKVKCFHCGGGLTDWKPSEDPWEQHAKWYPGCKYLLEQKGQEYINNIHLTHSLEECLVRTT
Test: Fluorescence polarization inhibition (competition) assay
Assay type: binding
Details: for inhibition at 50 µM: 0.5 h
Protocol: The fluorescence polarization assay was performed at r.t. in Corning 384-well black, polystyrene flat bottom plates (Corning, NY, USA) on a Synergy H4 Hybrid Reader (BioTek, Bad Friedrichshall, Germany). For fluorescence polarization measurements, (milipolarization units, mP) 484/20 nm excitation and 528/20 nm emission filters were selected. Phosphate buffer (pH 7.5) supplemented with γ-globulin (100 µg/mL) and NaN3 (0.02% w/v), fluorescent probe 4 and the XIAP BIR3 domain (Sino Biological, Beijing, China) were used for all measurements. All experiments were performed in duplicate. The obtained fluorescence polarization assay data were analyzed with Prism 5.0 Software (GraphPad Software, San Diego, ca.).
After a 15 min incubation at r.t., fluorescent probe 4 (2 nM) was added. The values were measured 30 min after the moment the probe was added. The assay was performed in phosphate buffer with a final DMSO concentration of 1.4% (v/v). […] In order to evaluate the quality and precision of the performed screening assay, we determined the Z´ factor as described by Zhang et al.. The obtained fluorescence polarization values were used to determine the percent inhibition, which was plotted as a function of the protein concentration. The EC50 and Ki values were calculated with GraphPad software (log(agonist) vs. response (variable slope) model) in combination with the web tool developed by Nikolovska-Coleska et al..
Fluorescence polarization inhibition assay and data analysis for 41m and 42m compounds was performed as described in the Material and Methods section of the manuscript. Briefly, 50 nM solution of the BIR3 XIAP protein in polarization buffer was added into phosphoroorganic compound solution (from 50 μM to 0.0537 nM). After 15 min incubation at r.t. the fluorescent probe 4 (2 nM) was added.
The values were read after 30 minutes from the moment the probe was added. The obtained fluorescence polarization values were used to determine the percentage of inhibition which was plotted as a function of the protein concentration (Supplementary Figure S4).
(1 picture or pasted object on this page, not shown here)

[1] = XIAP BIR3 50 nM, fluorescent probe 4 2 nM, read-out: EC50
[2] = antagonist 50 µM, inhibition of protein-probe interaction
[3] = XIAP BIR3 50 nM, fluorescent probe 4 2 nM
[4] = XIAP BIR3 50 nM, fluorescent probe 4 2 nM, read-out: log EC50 (converted)

EC50 [1] [µM]	inhibition at 50 µM [2] [%]	Ki [3] [µM]	EC50 [4] [µM]	log EC50 [3] [µM]	% Inh (50 µM) [2] [%]	SMILES
0.34	–	–	–	–	–	CC(C)[C@H](NC(=O)[C@H](C)N)C(=O)N1CCC[C@H]1C(=O)N[C@@H](Cc1c[nH]c2ccccc12)C(=O)O [Compound 3, H2N-Ala-Val-Pro-Trp-OH, reference compound] (H-AVPW-OH)
29.6	63.2	14.7	29.6	–	–	CN[C@@H](C)C(=O)N[C@H](C(=O)N1CCC[C@H]1C(=O)NCP(=O)(C(C)(C)C)C(C)(C)C)C(C)C [Compound 5]
19.9	72	9.87	19.9	–	–	CN[C@@H](C)C(=O)N[C@H](C(=O)N1CCC[C@H]1C(=O)NCP(=O)(C(C)(C)C)C(C)(C)C)C1CCCCC1 [Compound 6]
–	32	–	–	–	–	CN[C@@H](C)C(=O)N[C@H](C(=O)N1CCC[C@H]1C(=O)NCP(=O)(C(C)C)C(C)C)C(C)C [Compound 7]
–	41.3	–	–	–	–	CN[C@@H](C)C(=O)N[C@H](C(=O)N1CCC[C@H]1C(=O)NCP(=O)(C(C)C)C(C)C)C1CCCCC1 [Compound 8]
–	~25	–	–	–	–	CN[C@@H](C)C(=O)N[C@H](C(=O)N1CCC[C@H]1C(=O)NCP(=O)(C1CCCCC1)C1CCCCC1)C(C)C [Compound 9]
–	~25	–	–	–	–	CN[C@@H](C)C(=O)N[C@H](C(=O)N1CCC[C@H]1C(=O)NCP(=O)(C1CCCCC1)C1CCCCC1)C1CCCCC1 [Compound 10]
29.3	63.6	14.5	29.4	–	–	CN[C@@H](C)C(=O)N[C@H](C(=O)N1CCC[C@H]1C(=O)NCP(=O)(c1ccccc1)c1ccccc1)C(C)C [Compound 11]
26.3	–	13	–	1.420 ± 0.051	67.1	CN[C@@H](C)C(=O)N[C@H](C(=O)N1CCC[C@H]1C(=O)NCP(=O)(c1ccccc1)c1ccccc1)C1CCCCC1 [Compound 12]
30.8	61.6	15.3	30.8	–	–	CN[C@@H](C)C(=O)N[C@H](C(=O)N1CCC[C@H]1C(=O)NCP(=O)(c1ccc(C)cc1)c1ccc(C)cc1)C(C)C [Compound 15, (S)-N-((di-p-tolylphosphoryl)methyl)-1-((S)-3-methyl-2-((S)-2-(methylamino)propanamido)butanoyl)pyrrolidine-2-carboxamide]
40.3	57	20	40.4	–	–	CN[C@@H](C)C(=O)N[C@H](C(=O)N1CCC[C@H]1C(=O)NCP(=O)(c1ccc(C)cc1)c1ccc(C)cc1)C1CCCCC1 [Compound 16, (S)-1-((S)-2-cyclohexyl-2-((S)-2-(methylamino)propanamido)acetyl)-N-((di-p-tolylphosphoryl)methyl)pyrrolidine-2-carboxamide]
19.3	74	9.55	19.3	–	–	CN[C@@H](C)C(=O)N[C@H](C(=O)N1CCC[C@H]1C(=O)NC(C)P(=O)(c1ccc(C)cc1)c1ccc(C)cc1)C1CCCCC1 (stereo partly drawn) [Compound 17, (2S)-1-((S)-2-cyclohexyl-2-((S)-2-(methylamino)propanamido)acetyl)-N-(1-(di-p-tolylphosphoryl)ethyl)pyrrolidine-2-carboxamide]
29.3	62	14.5	29.2	–	–	CN[C@@H](C)C(=O)N[C@H](C(=O)N1CCC[C@H]1C(=O)NCP(=O)(c1ccccc1C)c1ccccc1C)C(C)C [Compound 18, (S)-N-((di-o-tolylphosphoryl)methyl)-1-((S)-3-methyl-2-((S)-2-(methylamino)propanamido)butanoyl)pyrrolidine-2-carboxamide]
28	66.2	13.9	28.1	–	–	CN[C@@H](C)C(=O)N[C@H](C(=O)N1CCC[C@H]1C(=O)NCP(=O)(c1ccccc1C)c1ccccc1C)C1CCCCC1 [Compound 19, (S)-1-((S)-2-cyclohexyl-2-((S)-2-(methylamino)propanamido)acetyl)-N-((di-o-tolylphosphoryl)methyl)pyrrolidine-2-carboxamide]
48	50	23.8	48	–	–	CN[C@@H](C)C(=O)N[C@H](C(=O)N1CCC[C@H]1C(=O)NCP(=O)(c1cc(C)cc(C)c1)c1cc(C)cc(C)c1)C(C)C [Compound 20, (S)-N-((bis(3,5-dimethylphenyl)phosphoryl)methyl)-1-((S)-3-methyl-2-((S)-2-(methylamino)propanamido)butanoyl)pyrrolidine-2-carboxamide]
22.5	74.4	11.2	22.5	–	–	CN[C@@H](C)C(=O)N[C@H](C(=O)N1CCC[C@H]1C(=O)NCP(=O)(c1cc(C)cc(C)c1)c1cc(C)cc(C)c1)C1CCCCC1 [Compound 21]
32.5	59.2	16.1	32.4	–	–	CN[C@@H](C)C(=O)N[C@H](C(=O)N1CCC[C@H]1C(=O)NC(C)P(=O)(c1cc(C)cc(C)c1)c1cc(C)cc(C)c1)C(C)C (some centres unmarked) [Compound 22]

SMILES	EC50 [1] [µM]	inhibition at 50 µM [2] [%]	Ki [3] [µM]	EC50 [4] [µM]	log EC50 [3] [µM]	% Inh (50 µM) [2] [%]
CCc1ccc(OP(=O)(Oc2ccc(CC)cc2)C(C)NC(=O)[C@@H]2CCCN2C(=O)[C@@H](NC(=O)[C@H](C)NC)C(C)C)cc1 (some centres unmarked) [Compound 23]	34.2	64.1	17	34.3	–	–
CCc1ccc(OP(=O)(Oc2ccc(CC)cc2)C(C)NC(=O)[C@@H]2CCCN2C(=O)[C@@H](NC(=O)[C@H](C)NC)C2CCCCC2)cc1 (some centres unmarked) [Compound 24]	20.5	74.1	10.2	20.6	–	–
CN[C@@H](C)C(=O)N[C@H](C(=O)N1CCC[C@H]1C(=O)NC(C)P(=O)(Oc1ccc(C(C)C)cc1)Oc1ccc(C(C)C)cc1)C(C)C (some centres unmarked) [Compound 25]	22	81.8	10.9	22	–	–
CN[C@@H](C)C(=O)N[C@H](C(=O)N1CCC[C@H]1C(=O)NC(C)P(=O)(Oc1ccc(C(C)C)cc1)Oc1ccc(C(C)C)cc1)C1CCCCC1 (some centres unmarked) [Compound 26]	19.8	85.8	9.84	19.8	–	–
CN[C@@H](C)C(=O)N[C@H](C(=O)N1CCC[C@H]1C(=O)NC(C)P(=O)(Oc1ccc(C(C)(C)C)cc1)Oc1ccc(C(C)(C)C)cc1)C(C)C (stereo partly drawn) [Compound 27, bis(4-(tert-butyl)phenyl) (1-((S)-1-((S)-3-methyl-2-((S)-2-(methylamino)propanamido)butanoyl)pyrrolidine-2-carboxamido)ethyl)phosphonate]	21.3	83.3	10.5	21.3	–	–
CN[C@@H](C)C(=O)N[C@H](C(=O)N1CCC[C@H]1C(=O)NC(C)P(=O)(Oc1ccc(C(C)(C)C)cc1)Oc1ccc(C(C)(C)C)cc1)C1CCCCC1 (stereo partly drawn) [Compound 28, bis(4-(tert-butyl)phenyl) (1-((S)-1-((S)-2-cyclohexyl-2-((S)-2-(methylamino)propanamido)acetyl)pyrrolidine-2-carboxamido)ethyl)phosphonate]	26.8	77.3	13.3	26.7	–	–
CN[C@@H](C)C(=O)N[C@H](C(=O)N1CCC[C@H]1C(=O)NC(C)P(=O)(Oc1ccccc1)Oc1ccccc1)C(C)C (stereo partly drawn) [Compound 29, diphenyl (1-((S)-1-((S)-3-methyl-2-((S)-2-(methylamino)propanamido)butanoyl)pyrrolidine-2-carboxamido)ethyl)phosphonate]	31.9	62.1	15.8	31.8	–	–
CN[C@@H](C)C(=O)N[C@H](C(=O)N1CCC[C@H]1C(=O)NC(C)P(=O)(Oc1ccccc1)Oc1ccccc1)C1CCCCC1 (stereo partly drawn) [Compound 30, diphenyl (1-((S)-1-((S)-2-cyclohexyl-2-((S)-2-(methylamino)propanamido)acetyl)pyrrolidine-2-carboxamido)ethyl)phosphonate]	30.2	69	15	30.3	–	–
CCC(NC(=O)[C@@H]1CCCN1C(=O)[C@@H](NC(=O)[C@H](C)NC)C(C)C)P(=O)(Oc1ccccc1)Oc1ccccc1 (stereo partly drawn) [Compound 31, diphenyl (1-((S)-1-((S)-3-methyl-2-((S)-2-(methylamino)propanamido)butanoyl)pyrrolidine-2-carboxamido)propyl)phosphonate]	38	57	18.8	38	–	–
